# Data taken from PMC4655258 (Enzyme Research, 2015).
# Where two headings read alike, the source gives them in different places.
# Legend:
# CYP2A6 = target: T1, CYP2A6 (Homo sapiens, UniProt P11509); assay: Fluorometric HTS enzyme assay, recombinant CYP2A6 (coumarin substrate); type: biochemical; conditions: ±SEM, 3 replicate assays; 3 μM coumarin
# T1 construct: purchased BD Bioscience (Woburn, MA); host or cells: baculovirus-infected insect cells (microsomes, supersomes)
# T1 sequence (P11509 1-494): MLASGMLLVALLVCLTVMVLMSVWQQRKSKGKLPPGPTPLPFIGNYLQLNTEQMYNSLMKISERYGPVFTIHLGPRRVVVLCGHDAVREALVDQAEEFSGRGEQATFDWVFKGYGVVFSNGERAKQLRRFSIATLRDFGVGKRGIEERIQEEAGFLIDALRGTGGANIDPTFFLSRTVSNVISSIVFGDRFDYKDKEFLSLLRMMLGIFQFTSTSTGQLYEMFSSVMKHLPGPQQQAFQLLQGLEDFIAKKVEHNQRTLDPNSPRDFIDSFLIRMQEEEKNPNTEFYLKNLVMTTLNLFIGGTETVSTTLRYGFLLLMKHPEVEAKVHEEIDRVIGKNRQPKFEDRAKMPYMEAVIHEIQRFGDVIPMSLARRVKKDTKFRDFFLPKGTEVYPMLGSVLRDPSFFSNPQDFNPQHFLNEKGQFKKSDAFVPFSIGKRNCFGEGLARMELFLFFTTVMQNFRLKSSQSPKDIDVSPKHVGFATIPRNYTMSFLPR
# Experimental: (§1) IC50 determinations for human CYPs were similar to HTS methods described by Crespi et al.. Unless otherwise stated, the incubations were carried out in a total volume of 200 μL of 50 mM potassium phosphate buffer (pH 7.4) with 1% acetonitrile. The reaction mixtures contained NADPH-regenerating system in potassium phosphate buffer (pH 7.4) and varying amounts of inhibitor (dissolved in 100% acetonitrile) were preincubated at 37°C for 10 minutes (except CYP2A6 which was in 100 mM Tris buffer pH 7.4). The reactions were initiated by the addition of enzyme/substrate mixture (see Table 1), followed by incubation at 37°C for 30 minutes. The fluorescent signal was measured using a SpectraMax GEMINI XPS (Molecular Devices) with excitation and emission wavelengths listed in Table 1. The data were fit to sigmoidal dose-response curves with nonlinear regression and IC50 values calculated using GraphPad Prism 5.
# [1] = cited from earlier work
# CYP3A4 = target: T2, CYP3A4 (Homo sapiens, UniProt P08684); assay: Fluorometric HTS enzyme assay, recombinant CYP3A4 (BFC substrate); type: biochemical; conditions: recombinant CYP3A4, pH 7.4, probe BFC, at 1 mM
# T2 construct: purchased BD Bioscience (Woburn, MA); host or cells: baculovirus-infected insect cells (microsomes, supersomes)
# T2 sequence (P08684 whole entry): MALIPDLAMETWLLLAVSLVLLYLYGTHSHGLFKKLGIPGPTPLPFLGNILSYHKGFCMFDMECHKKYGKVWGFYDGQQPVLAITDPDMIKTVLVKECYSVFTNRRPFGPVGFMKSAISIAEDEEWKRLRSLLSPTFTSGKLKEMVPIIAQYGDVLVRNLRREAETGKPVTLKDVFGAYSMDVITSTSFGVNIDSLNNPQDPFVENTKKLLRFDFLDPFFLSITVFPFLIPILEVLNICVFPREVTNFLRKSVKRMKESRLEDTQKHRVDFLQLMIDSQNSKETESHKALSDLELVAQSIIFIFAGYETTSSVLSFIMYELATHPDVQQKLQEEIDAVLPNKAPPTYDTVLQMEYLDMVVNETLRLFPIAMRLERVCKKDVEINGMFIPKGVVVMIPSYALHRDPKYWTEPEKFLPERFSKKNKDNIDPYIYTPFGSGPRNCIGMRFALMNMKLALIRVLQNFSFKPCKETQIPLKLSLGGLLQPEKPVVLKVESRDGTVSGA
# Experimental: as §1
# CYP1B1 = system: CYP1B1; design: method as in PMID 18256205; conditions: cited from earlier work
# CYP1A1 = target: T3, CYP1A1 (Homo sapiens, UniProt P04798); assay: Fluorometric HTS enzyme assay, recombinant CYP1A1 (CEC substrate); type: biochemical; conditions: ±SEM, 3 replicate assays; 5 μM CEC
# T3 construct: purchased BD Bioscience (Woburn, MA); host or cells: baculovirus-infected insect cells (microsomes, supersomes)
# T3 sequence (P04798 1-512): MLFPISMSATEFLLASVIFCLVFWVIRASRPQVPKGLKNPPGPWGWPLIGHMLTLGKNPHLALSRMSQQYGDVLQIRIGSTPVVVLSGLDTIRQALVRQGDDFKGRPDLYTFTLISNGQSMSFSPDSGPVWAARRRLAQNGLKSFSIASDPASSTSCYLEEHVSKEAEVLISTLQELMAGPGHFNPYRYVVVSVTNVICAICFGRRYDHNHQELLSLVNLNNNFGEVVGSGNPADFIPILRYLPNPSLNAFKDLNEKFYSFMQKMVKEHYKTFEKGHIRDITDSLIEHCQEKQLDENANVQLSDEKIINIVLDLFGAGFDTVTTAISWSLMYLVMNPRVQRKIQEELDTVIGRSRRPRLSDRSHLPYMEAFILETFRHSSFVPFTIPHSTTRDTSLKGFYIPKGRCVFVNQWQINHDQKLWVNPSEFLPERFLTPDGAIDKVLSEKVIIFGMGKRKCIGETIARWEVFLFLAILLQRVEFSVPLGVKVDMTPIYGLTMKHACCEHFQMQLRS
# Experimental: as §1
IC50 (CYP2A6),"inhibition at 30 min, 1 mM (CYP3A4)",IC50 (CYP1A1),SMILES,"effect of pretreatment on [11C]-vorozole binding in the liver ([1]; baboon and human liver, pretreatment with letrozole)","IC50 (CYP1B1; 2-hydroxy estradiol formation, read-out: IC50 on CYP1B1, estradiol 2-hydroxylation)","IC50 (CYP1B1; 4-hydroxy estradiol formation, read-out: IC50 on CYP1B1, estradiol 4-hydroxylation)",effect of pretreatment on liver pharmacokinetics of [11C]-vorozole binding ([1]; pretreatment with ketoconazole)
106 ± 34 µM,< 10%,69.8 ± 5.3 µM,N#Cc1ccc(C(c2ccc(C#N)cc2)n2cncn2)cc1 [Letrozole],does not block,≥ 100 µM,≥ 100 µM,
,,,CC(=O)N1CCN(c2ccc(OCC3COC(Cn4ccnc4)(c4ccc(Cl)cc4Cl)O3)cc2)CC1 (stereo not shown) [ketoconazole],,,,altered
